In ChEMBL document CHEMBL1156253 (Eur J Med Chem, 2010) one finds IC50 data, which are given here for 2 compounds.

The structures appear in SMILES notation.

For this experiment, the target named is T1, Peroxisome proliferator-activated receptor gamma (Homo sapiens, UniProt P37231).
T1 sequence (P37231 whole entry): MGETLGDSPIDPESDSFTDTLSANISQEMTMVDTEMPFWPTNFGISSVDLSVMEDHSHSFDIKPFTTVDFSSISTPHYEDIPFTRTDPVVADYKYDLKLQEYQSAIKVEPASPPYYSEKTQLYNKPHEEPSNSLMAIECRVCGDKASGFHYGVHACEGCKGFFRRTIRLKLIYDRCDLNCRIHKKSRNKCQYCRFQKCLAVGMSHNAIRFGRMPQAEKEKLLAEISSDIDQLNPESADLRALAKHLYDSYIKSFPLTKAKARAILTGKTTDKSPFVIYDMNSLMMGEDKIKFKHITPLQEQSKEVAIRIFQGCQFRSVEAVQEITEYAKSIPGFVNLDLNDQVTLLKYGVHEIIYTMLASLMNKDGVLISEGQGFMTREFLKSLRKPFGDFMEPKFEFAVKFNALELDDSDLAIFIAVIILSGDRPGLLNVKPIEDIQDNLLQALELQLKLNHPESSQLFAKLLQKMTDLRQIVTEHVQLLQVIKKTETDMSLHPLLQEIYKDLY
Put plainly: Agonist activity at N-terminal His-tagged human PPARgamma ligand binding domain by fluorescence polarization assay. For orientation: Fluorescence polarisation rises when a labelled molecule tumbles more slowly, as on binding a larger partner.

As a reminder, the IC50 is the point on the concentration scale where inhibition reaches its midpoint. Low values mean greater potency in that assay, high ones weaker potency in that assay.

Consider `O=C(O)CCN1C(=O)/C(=C\c2ccc(Cl)cc2Cl)SC1=S`, for which the IC50 stood at 0.876 µM.

On to `Cc1ccc(COc2ccccc2/C=C2/SC(=S)N(CCC(=O)O)C2=O)cc1`, for which the IC50 was 1.32 µM.
